Tests used:
[1] = tested on: Human immunodeficiency virus 1; assay: Antiviral activity against pseudotype HIV1 JRFL infected in human HeLa67 cells expressing CD4/CCR5 after 3 days by luciferase reporter gene assay; assay type: functional, organism-based; settings: Human immunodeficiency virus 1, JRFL, HeLa67, 72 h
[2] = Mean residence time in rat at 5 mg/kg, iv dosed as solution in PEG400/EtOH; assay type: ADME, organism-based; design: dose 5 mg/kg, route intravenous; settings: in vivo
[3] = Volume of distribution at steady state in rat at 5 mg/kg, iv dosed as solution in PEG400/EtOH; assay type: ADME, organism-based; design: dose 5 mg/kg, route intravenous; settings: in vivo, read-out: Vdss
[4] = Tmax in rat at 25 mg/kg, po dosed as solution in PEG400/EtOH; assay type: ADME, organism-based; design: dose 25 mg/kg, route oral; settings: in vivo
[5] = Terminal half life in rat at 25 mg/kg, po dosed as solution in PEG400/EtOH; assay type: ADME, organism-based; design: dose 25 mg/kg, route oral; settings: in vivo, read-out: beta t1/2
[6] = Oral bioavailability in rat at 25 mg/kg dosed as solution in PEG400/EtOH; assay type: ADME, organism-based; settings: in vivo
[7] = Cytotoxicity against human HeLa67 cells expressing CD4/CCR5 after 3 days by XTT assay; assay type: cell-based
[8] = Cmax in rat at 25 mg/kg, po dosed as solution in PEG400/EtOH; assay type: ADME, organism-based; design: dose 25 mg/kg, route oral; settings: in vivo
[9] = Terminal half life in rat at 5 mg/kg, iv dosed as solution in PEG400/EtOH; assay type: ADME, organism-based; design: dose 5 mg/kg, route intravenous; settings: in vivo, read-out: beta t1/2
[10] = Permeability across human Caco-2 cells; assay type: ADME, cell-based; settings: read-out: permeability
[11] = Clearance in rat at 5 mg/kg, iv dosed as solution in PEG400/EtOH; assay type: ADME, organism-based; design: dose 5 mg/kg, route intravenous; settings: in vivo
[12] = Volume of distribution at steady state in rat at 1 mg/kg, iv dosed as solution in PEG400/EtOH; assay type: ADME, organism-based; design: dose 1 mg/kg, route intravenous; settings: in vivo, read-out: Vdss
[13] = Terminal half life in rat at 1 mg/kg, iv dosed as solution in PEG400/EtOH; assay type: ADME, organism-based; design: dose 1 mg/kg, route intravenous; settings: in vivo, read-out: beta t1/2
[14] = Oral bioavailability in rat at 5 mg/kg dosed as solution in PEG400/EtOH; assay type: ADME, organism-based; settings: in vivo
[15] = Terminal half life in rat at 5 mg/kg, po dosed as solution in PEG400/EtOH; assay type: ADME, organism-based; design: dose 5 mg/kg, route oral; settings: in vivo, read-out: beta t1/2
[16] = Cmax in rat at 5 mg/kg, po dosed as solution in PEG400/EtOH; assay type: ADME, organism-based; design: dose 5 mg/kg, route oral; settings: in vivo
[17] = Clearance in rat at 1 mg/kg, iv dosed as solution in PEG400/EtOH; assay type: ADME, organism-based; design: dose 1 mg/kg, route intravenous; settings: in vivo
[18] = Tmax in rat at 5 mg/kg, po dosed as solution in PEG400/EtOH; assay type: ADME, organism-based; design: dose 5 mg/kg, route oral; settings: in vivo
[19] = Mean residence time in rat at 1 mg/kg, iv dosed as solution in PEG400/EtOH; assay type: ADME, organism-based; design: dose 1 mg/kg, route intravenous; settings: in vivo
[20] = tested on: Human immunodeficiency virus 1; assay: Antiviral activity against pseudotype HIV1 LAI infected in human HeLa67 cells expressing CD4/CCR5 after 3 days by luciferase reporter gene assay; assay type: functional, organism-based; settings: Human immunodeficiency virus 1, LAI, HeLa67, 72 h

| SMILES | EC50 [1] | CC50 at 72 h [7] | also measured |
| --- | --- | --- | --- |
| O=C(C(=O)N1CCN(C(=O)c2ccccc2)CC1)c1c[nH]c2ccccc12 | 153 nM | 339 µM | MRT [2]: 0.433 h; Vd [3]: 1.5 L/kg; Tmax [4]: 0.55 h; half-life [5]: 2.72 h; bioavailability [6]: 29%; Cmax [8]: 1040 ng/mL; half-life [9]: 0.5 h; Papp [10]: 22.8 ×10⁻⁶ cm/s; clearance [11]: 57 mL/min/kg |
| CCOc1cccc2c(C(=O)C(=O)N3CCN(C(=O)c4ccccc4)CC3)c[nH]c12 | 0.5 nM | 117 µM |  |
| N#Cc1ccc2[nH]cc(C(=O)C(=O)N3CCN(C(=O)c4ccccc4)CC3)c2c1 | 121000 nM | > 300 µM |  |
| COc1ccc(Cl)c2[nH]cc(C(=O)C(=O)N3CCN(C(=O)c4ccccc4)CC3)c12 | 0.07 nM | > 300 µM |  |
| O=C(C(=O)N1CCN(C(=O)c2ccccc2)CC1)c1c[nH]c2cccc(Br)c12 | 4.5 nM | 142 µM |  |
| O=C(C(=O)N1CCN(C(=O)c2ccccc2)CC1)c1c[nH]c2cccc([N+](=O)[O-])c12 | 150 nM | > 300 µM |  |
| CC(=O)Oc1ccc2[nH]cc(C(=O)C(=O)N3CCN(C(=O)c4ccccc4)CC3)c2c1 | 952 nM | 95.2 µM |  |
| O=C(C(=O)N1CCN(C(=O)c2ccccc2)CC1)c1c[nH]c2cc(Cl)ccc12 | 208 nM | > 110 µM |  |
| COc1ccc2c(C(=O)C(=O)N3CCN(C(=O)c4ccccc4)CC3)c[nH]c2c1 | 329 nM | > 300 µM |  |
| CC(=O)Oc1cccc2[nH]cc(C(=O)C(=O)N3CCN(C(=O)c4ccccc4)CC3)c12 | 24900 nM | > 300 µM |  |
| C/C=C/n1cc(C(=O)C(=O)N2CCN(C(=O)c3ccccc3)CC2)c2ccccc21 | 6760 nM | 202 µM |  |
| O=C(C(=O)N1CCN(C(=O)c2ccccc2)CC1)c1c[nH]c2c(F)c(F)c(F)c(F)c12 | 1.7 nM | 55.7 µM |  |
| CCn1cc(C(=O)C(=O)N2CCN(C(=O)c3ccccc3)CC2)c2ccccc21 | 1450 nM | > 300 µM |  |
| O=C(C(=O)N1CCN(C(=O)c2ccccc2)CC1)c1cn(Cc2ccccc2)c2ccccc12 | 13800 nM | 182 µM |  |
| CCCCn1cc(C(=O)C(=O)N2CCN(C(=O)c3ccccc3)CC2)c2ccccc21 | 2650 nM | > 300 µM |  |
| COc1ccc2[nH]cc(C(=O)C(=O)N3CCN(C(=O)c4ccccc4)CC3)c2c1 | 21100 nM | > 300 µM |  |
| O=C(C(=O)N1CCN(C(=O)c2ccccc2)CC1)c1c[nH]c2ccc([N+](=O)[O-])cc12 | 3800 nM | 44.6 µM |  |
| CCOc1cccc2[nH]cc(C(=O)C(=O)N3CCN(C(=O)c4ccccc4)CC3)c12 | 0.45 nM | > 94.8 µM |  |
| O=C(C(=O)N1CCN(C(=O)c2ccccc2)CC1)c1c[nH]c2c(Br)ccc(OC(F)(F)F)c12 | 42.8 nM | 75.7 µM |  |

| SMILES | EC50 [1] | CC50 at 72 h [7] | also measured |
| --- | --- | --- | --- |
| O=C(C(=O)N1CCN(C(=O)c2ccccc2)CC1)c1c[nH]c2ccc(F)cc12 | 838 nM | > 300 µM |  |
| O=C(C(=O)N1CCN(C(=O)c2ccccc2)CC1)c1c[nH]c2ccc(Cl)cc12 | 395 nM | 46 µM |  |
| O=C(C(=O)N1CCN(C(=O)c2ccccc2)CC1)c1c[nH]c2ccc(Br)cc12 | 1090 nM | > 149 µM |  |
| O=C(C(=O)N1CCN(C(=O)c2ccccc2)CC1)c1c[nH]c2c(Br)ccc(F)c12 | 0.13 nM | 39.8 µM |  |
| Cc1ccc2[nH]cc(C(=O)C(=O)N3CCN(C(=O)c4ccccc4)CC3)c2c1 | 1550 nM | > 300 µM |  |
| O=C(C(=O)N1CCN(C(=O)c2ccccc2)CC1)c1c[nH]c2cc(F)c(Br)c(F)c12 | 23.1 nM | 20.9 µM |  |
| O=C(C(=O)N1CCN(C(=O)c2ccccc2)CC1)c1c[nH]c2c(F)ccc(F)c12 | 0.35 nM | > 300 µM | Vd [12]: 0.85 L/kg; half-life [13]: 0.283 h; bioavailability [14]: 11%; half-life [15]: 9.18 h; Cmax [16]: 55 ng/mL; clearance [17]: 46.9 mL/min/kg; Tmax [18]: 0.333 h; Papp [10]: 21.9 ×10⁻⁶ cm/s; MRT [19]: 0.317 h |
| CCc1cccc2c(C(=O)C(=O)N3CCN(C(=O)c4ccccc4)CC3)c[nH]c12 | 24.2 nM | > 49 µM |  |
| O=C(C(=O)N1CCN(C(=O)c2ccccc2)CC1)c1c[nH]c2cc(F)c(F)cc12 | > 290 nM | 170 µM |  |
| N#Cc1cccc2c(C(=O)C(=O)N3CCN(C(=O)c4ccccc4)CC3)c[nH]c12 | 4.9 nM | 234 µM |  |
| CCCCOc1cccc2c(C(=O)C(=O)N3CCN(C(=O)c4ccccc4)CC3)c[nH]c12 | 0.14 nM | 64.5 µM |  |
| N#Cc1ccc(F)c2c(C(=O)C(=O)N3CCN(C(=O)c4ccccc4)CC3)c[nH]c12 | 1.9 nM | > 300 µM |  |
| O=C(C(=O)N1CCN(C(=O)c2ccccc2)CC1)c1c[nH]c2cc(F)cc(F)c12 | 0.42 nM | > 188 µM |  |
| O=C(C(=O)N1CCN(C(=O)c2ccccc2)CC1)c1c[nH]c2c(Br)cccc12 | 17.4 nM | 64 µM |  |
| Cc1cccc2c(C(=O)C(=O)N3CCN(C(=O)c4ccccc4)CC3)c[nH]c12 | 89.5 nM | > 218 µM |  |
| N#Cc1ccc(F)c2[nH]cc(C(=O)C(=O)N3CCN(C(=O)c4ccccc4)CC3)c12 | > 500 nM | > 300 µM |  |
| O=C(C(=O)N1CCN(C(=O)c2ccccc2)CC1)c1c[nH]c2cc(C(F)(F)F)ccc12 | > 5000 nM | 54.5 µM |  |
| Cc1ccc(C)c2c(C(=O)C(=O)N3CCN(C(=O)c4ccccc4)CC3)c[nH]c12 | > 500 nM | 202 µM |  |
| O=C(C(=O)N1CCN(C(=O)c2ccccc2)CC1)c1c[nH]c2cccc(O)c12 | 20100 nM | > 300 µM |  |

| SMILES | EC50 [1] | CC50 at 72 h [7] | also measured |
| --- | --- | --- | --- |
| COc1ccc(Br)c2[nH]cc(C(=O)C(=O)N3CCN(C(=O)c4ccccc4)CC3)c12 | 0.13 nM | 118 µM |  |
| O=C(C(=O)N1CCN(C(=O)c2ccccc2)CC1)c1c[nH]c2cc(Cl)c(F)cc12 | > 500 nM | 98.5 µM |  |
| Cc1ccc(F)c2c(C(=O)C(=O)N3CCN(C(=O)c4ccccc4)CC3)c[nH]c12 | 0.56 nM | 87.5 µM |  |
| COc1ccc(OC)c2c(C(=O)C(=O)N3CCN(C(=O)c4ccccc4)CC3)c[nH]c12 | 0.23 nM | 279 µM | Vd [12]: 0.52 L/kg; half-life [13]: 2.3 h; bioavailability [14]: 107%; half-life [15]: 1.85 h; Cmax [16]: 3200 ng/mL; clearance [17]: 5.2 mL/min/kg; Tmax [18]: 3 h; MRT [19]: 1.7 h |
| COc1ccc(C#N)c2[nH]cc(C(=O)C(=O)N3CCN(C(=O)c4ccccc4)CC3)c12 | 0.06 nM | > 275 µM |  |
| O=C(C(=O)N1CCN(C(=O)c2ccccc2)CC1)c1c[nH]c2c(F)cccc12 | 7.3 nM | > 152 µM |  |
| Cn1cc(C(=O)C(=O)N2CCN(C(=O)c3ccccc3)CC2)c2ccccc21 | 265 nM | 226 µM |  |
| COc1cc2[nH]cc(C(=O)C(=O)N3CCN(C(=O)c4ccccc4)CC3)c2cc1OC | 46500 nM | > 300 µM |  |
| O=C(C(=O)N1CCN(C(=O)c2ccccc2)CC1)c1c[nH]c2c(Cl)cccc12 | 4.4 nM | 162 µM |  |
| CC(C)Oc1cccc2[nH]cc(C(=O)C(=O)N3CCN(C(=O)c4ccccc4)CC3)c12 | > 500 nM | 150 µM |  |
| COc1ccc(F)c2c(C(=O)C(=O)N3CCN(C(=O)c4ccccc4)CC3)c[nH]c12 | 0.06 nM | > 300 µM |  |
| O=C(C(=O)N1CCN(C(=O)c2ccccc2)CC1)c1c[nH]c2c(Br)cc(F)cc12 | 73.1 nM | 22.5 µM |  |
| COc1cccc2c(C(=O)C(=O)N3CCN(C(=O)c4ccccc4)CC3)c[nH]c12 | 6.6 nM | 154 µM |  |
| O=C(C(=O)N1CCN(C(=O)c2ccccc2)CC1)c1c[nH]c2cc(Cl)c(Cl)cc12 |  | 52.3 µM | EC50 [20]: 0.5 µM |
| O=C(C(=O)N1CCN(C(=O)c2ccccc2)CC1)c1c[nH]c2c(OCC(F)(F)F)ccc(F)c12 | 0.71 nM | 196 µM |  |
| O=C(C(=O)N1CCN(C(=O)c2ccccc2)CC1)c1c[nH]c2cccc(Cl)c12 | 4.3 nM | 212 µM |  |
| COc1cccc2[nH]cc(C(=O)C(=O)N3CCN(C(=O)c4ccccc4)CC3)c12 | 0.52 nM | > 300 µM |  |
| O=C(C(=O)N1CCN(C(=O)c2ccccc2)CC1)c1c[nH]c2cc(F)ccc12 | 21.1 nM | > 245 µM |  |
| O=C(C(=O)N1CCN(C(=O)c2ccccc2)CC1)c1c[nH]c2c(F)ccc(Br)c12 | 8.2 nM | 86 µM |  |

Reference: ChEMBL document CHEMBL1153340, “Inhibitors of HIV-1 attachment. Part 2: An initial survey of indole substitution patterns” (Bioorg Med Chem Lett, 2009)
